# Measured values: patent publication US11975048B2, “Long-acting fatty acid-conjugated GnRH derivatives and pharmaceutical compositions containing same” (NOVEL PHARMA INC., priority 2019, dated 2024)
# Square brackets hold non-standard residues; d marks the D form. Peptide text beside a SMILES is read from it. * marks the point of attachment. Palmitoyl = CCCCCCCCCCCCCCCC(=O)*
# Columns and labels:
# [1] = cited from earlier work
# LNCaP = test: Cell viability assay (CCK-8), prostate cancer cell line LNCaP; type: cell-based
# Experimental: (§1) GnRH derivatives are clinically applied to the therapy of diseases including breast cancer, prostate cancer, endometriosis, central precocious puberty, and the like. […] An assay for cell viability was performed using the Cell Counting Kit-8 (CCK-8, manufactured by DOJINDO). Each of the cell lines was separated from the T75 flask by trypsinization and transferred to 96-well plates at a density of 1×10^4 cells/mL for DU-145 and at a density of 1×10^5 cells/mL for PC3 and LNCaP, followed by incubation for one hour for attachment.
# (§2) Subsequently, each cell line was treated with 100 μM and 200 μM of each of the derivatives of Comparative Examples 1 to 3 and Examples 9 to 16 and the control. In brief, 1% methyl β-cyclodextrin was used as a negative control for cell viability while 0.1% sodium dodecyl sulfate (SDS) served as a positive control. After 48 hours of incubation, the existing culture medium was removed, and 100 μL of fresh culture medium and 10 μL of CCK-8 solution were applied to each cell line. Again, after 48 hours of incubation, the medium solution was replaced by 100 μL of fresh culture medium and 10 μL of CCK-8 solution. The cells were incubated for 4 hours, and then the absorbance was measured at 450 nm to assess cell viability.
# DU-145 = test: Cell viability assay (CCK-8), prostate cancer cell line DU-145; type: cell-based
# Experimental: as §1, §2
# PC3 = test: Cell viability assay (CCK-8), prostate cancer cell line PC3; type: cell-based
# Experimental: as §1, §2
# [2] = Blood concentration over time and pharmacokinetic analysis after single subcutaneous administration (LC/MSMS); type: in vivo, female SD rats; settings: rats, 12.5 mg/kg s.c. once
# Experimental: The present inventor carried out animal experiments (female SD rats, nine weeks old) in order to examine the increased in vivo half-lives of the prepared fatty acid-conjugated GnRH derivatives. […] DMSO (dimethyl sulfoxide) was used as a solvent as needed. Before administration and at 0.5, 1, 2, and 6 hours and on days 1, 3, 7, 10, 14, 21, and 28 after administration, blood samples were taken from the tail vein of the rats and measured for the blood concentrations of Leuprolide and the derivatives of the Examples, using LC/MSMS. If the concentration reached about 4 ng/mL at a specific time point, no measurements were further made for the next time point.
# In the following table, the numerical unit is ng/mL.
# The measurement results are graphically depicted in FIGS. 10 to 12. Based on the results, pharmacokinetic analysis was carried out by calculating the half-life (t1/2), clearance rate (CL), volume of distribution (Vd), time to reach the maximum concentration following drug administration (Tmax), maximum concentration following drug administration (Cmax), and systemic exposure to drug (AUCt). The analysis results are as follows.
# ovary of female rats = test: Assay for ovarian morphological change (H&E stained ovaries); type: in vivo; settings: single subcutaneous dose 12.5 mg/kg (as cyclodextrin compositions), day 28, versus non-treated and methyl-β-cyclodextrin groups
# Experimental: Experiments were carried out to examine whether or not the fatty acid-conjugated GnRH derivatives maintain the functional characteristics and incur a morphological change in the ovary.
# The pharmaceutical compositions of Examples 9, 10, 13, 14, 15, and 16 were each subcutaneously injected at a single dose of 12.5 mg/kg once at the back of the neck to female rats 9 weeks old. Rats to which no drugs were administered were used as a non-treated control while an aqueous solution of 3 mg of methyl-β-cyclodextrin was injected to a negative control. Each group consisted of 3 rats.
# On day 28 after injection, the rats were subjected to an autopsy to excise the ovaries which were then stained with hematoxylin-eosin (H&E stain).
# Briefly, ovaries were stained with H&E and observed as follows.
# 11. After finishing the above procedures, the specimen slides were scanned using a ScanScope® AT slider scanner (Aperio) and the images thus stored were analyzed using the ImageScope program (Aperio). The scanned images are depicted in FIGS. 6 to 9.
# It is known that when administered to rats, a GnRH agonist reduces the formation of secondary follicles and Graafian follicles (see: Mohammadbeigi et al., Short-term Administration of Gonadotropin-releasing Hormone Agonist (Buserelin) Induces Apoptosis in Rat Ovarian Developmental Follicles, July 2016). In this experiment, secondary and Graafian follicles on ovary images in each treatment group were indicted by arrows to examine whether the number of the follicles is reduced or not.
# [3] = emulsion, same dose; cited from earlier work
# [4] = treatment conc. 200 μM, listed as Comparative Example 3
compound,measurement,setting,value
CC(C)C[C@H](NC(=O)CNC(=O)[C@H](Cc1ccc(O)cc1)NC(=O)[C@H](CO)NC(=O)[C@H](Cc1c[nH]c2ccccc12)NC(=O)[C@H](Cc1cnc[nH]1)NC(=O)[C@@H]1CCC(=O)N1)C(=O)N[C@@H](CCCNC(=N)N)C(=O)N1CCC[C@H]1C(=O)NCC(N)=O [C. Example 1],in vivo half-life in circulating blood,[1],2 to 4 min
"CC(C)C[C@H](NC(=O)[C@@H](Cc1c[nH]c2ccccc12)NC(=O)[C@H](Cc1ccc(O)cc1)NC(=O)[C@H](CO)NC(=O)[C@H](Cc1c[nH]c2ccccc12)NC(=O)[C@H](Cc1c[nH]cn1)NC(=O)[C@@H]1CCC(=O)N1)C(=O)N[C@@H](CCCNC(=N)N)C(=O)N1CCC[C@H]1C(=O)NCC(N)=O [C. Example 3, pyroGlu-His-Trp-Ser-Tyr-D-Trp-Leu-Arg-Pro-Gly-NH2]",Viability of LNCaP relative to negative control 1% methyl-β-cyclodextrin (%),LNCaP; treatment conc. 100 μM,92.89 ± 4.33%
same,Viability of LNCaP relative to negative control 1% methyl-β-cyclodextrin (%),LNCaP; treatment conc. 200 μM,90.22 ± 4.03%
same,Viability of LNCaP relative to negative control 1% methyl-β-cyclodextrin (%),LNCaP; [4],about 90%
same,Viability of DU-145 relative to negative control 1% methyl-β-cyclodextrin (%),DU-145; treatment conc. 100 μM,100.92 ± 2.98%
same,Viability of DU-145 relative to negative control 1% methyl-β-cyclodextrin (%),DU-145; treatment conc. 200 μM,94.27 ± 3.47%
same,Viability of DU-145 relative to negative control 1% methyl-β-cyclodextrin (%),DU-145; [4],about 94%
same,Viability of PC3 relative to negative control 1% methyl-ß-cyclodextrin (%),PC3; treatment conc. 100 μM,99.67 ± 3.17%
same,Viability of PC3 relative to negative control 1% methyl-ß-cyclodextrin (%),PC3; treatment conc. 200 μM,95.44 ± 4.03%
same,Viability of PC3 relative to negative control 1% methyl-ß-cyclodextrin (%),PC3; [4],about 95%
"CCCCCCCCCCCCCCCC(=O)N[C@@H](CCC(N)=O)C(=O)N[C@@H](Cc1c[nH]cn1)C(=O)N[C@@H](Cc1c[nH]c2ccccc12)C(=O)N[C@@H](CO)C(=O)N[C@@H](Cc1ccc(O)cc1)C(=O)N[C@H](CC(C)C)C(=O)N[C@@H](CC(C)C)C(=O)N[C@@H](CCCNC(=N)N)C(=O)N1CCC[C@H]1C(=O)NCC [Example 4, Palmitic acid-Gln-His-Trp-Ser-Tyr-D-Leu-Leu-Arg-Pro-NHEt] (Palmitoyl-QHWSY[dL]LRP-NHEt)",AUC(0-t),"[2]; female, SD, rat, blood, sc, 12.5 mg/kg, read-out: AUCt (systemic exposure to drug) (converted)",5190 ng·h/mL
same,Cmax,"[2]; female, SD, rat, blood, sc, 12.5 mg/kg, read-out: Cmax (maximum concentration)",52.2 ng/mL
same,half-life,"[2]; female, SD, rat, blood, sc, 12.5 mg/kg, read-out: t1/2 (half-life) (converted)",115 h
same,Tmax,"[2]; female, SD, rat, blood, sc, read-out: Tmax (time to reach the maximum concentration) (converted)",6 h
same,CL (clearance rate),[2]; 12.5 mg/kg,0.051 (mg/kg)/(ng/mL)/Day
same,Vd (volume of distribution),[2]; 12.5 mg/kg,0.351 (mg/kg)/(ng/mL)
"CCCCCCCCCCCCCCCC(=O)N[C@@H](CCC(N)=O)C(=O)N[C@@H](Cc1c[nH]cn1)C(=O)N[C@@H](Cc1c[nH]c2ccccc12)C(=O)N[C@@H](CO)C(=O)N[C@@H](Cc1ccc(O)cc1)C(=O)N[C@H](CC(C)C)C(=O)N[C@@H](CC(C)C)C(=O)N[C@@H](CCCNC(=N)N)C(=O)N1CCC[C@H]1C(=O)NCC [Example 6, Palmitic acid-Gln-His-Trp-Ser-Tyr-D-Leu-Leu-Arg-Pro-NHEt] (Palmitoyl-QHWSY[dL]LRP-NHEt)",Tmax (time to reach the maximum concentration),[2],6 h
same,CL (clearance rate),[2]; 12.5 mg/kg,0.075 (mg/kg)/(ng/mL)/Day
same,Cmax (maximum concentration),[2]; 12.5 mg/kg,45.7 ng/mL
same,Vd (volume of distribution),[2]; 12.5 mg/kg,0.436 (mg/kg)/(ng/mL)
same,t1/2 (half-life),[2]; 12.5 mg/kg,96.7 h
"CCCCCCCCCCCCOS(=O)(=O)[O-].[Na+] [Positive Control (0.1% SDS), sodium dodecyl sulfate]",Viability of LNCaP relative to negative control 1% methyl-β-cyclodextrin (%),"LNCaP; positive control, 0.1% SDS",20.45 ± 1.58%
same,Viability of DU-145 relative to negative control 1% methyl-β-cyclodextrin (%),"DU-145; positive control, 0.1% SDS",18.18 ± 2.32%
same,Viability of PC3 relative to negative control 1% methyl-ß-cyclodextrin (%),"PC3; positive control, 0.1% SDS",15.11 ± 1.72%
Arachidic acid-Gln-His-Trp-Ser-Tyr-D-Leu-Leu-Arg-Pro-NHEt ({Arachidic acid}-QHWSY[dL]LRP-NHEt; also: acetate salt) [Example 8],numbers of secondary or Graafian follicles in the ovary,ovary of female rats,decreased
Arachidic acid-Glu-His-Trp-Ser-Tyr-D-Leu-Leu-Arg-Pro-NHEt ({Arachidic acid}-EHWSY[dL]LRP-NHEt; also: acetate salt) [Example 7],numbers of secondary or Graafian follicles in the ovary,ovary of female rats,decreased
Lauric acid-Gln-His-Trp-Ser-Tyr-D-Leu-Leu-Arg-Pro-NHEt ({Lauric acid}-QHWSY[dL]LRP-NHEt; also: acetate salt) [Example 2],numbers of secondary or Graafian follicles in the ovary,ovary of female rats,decreased
Lauric acid-Glu-His-Trp-Ser-Tyr-D-Leu-Leu-Arg-Pro-NHEt ({Lauric acid}-EHWSY[dL]LRP-NHEt; also: acetate salt) [Example 1],numbers of secondary or Graafian follicles in the ovary,ovary of female rats,decreased
Palmitic acid-Glu-His-Trp-Ser-Tyr-D-Leu-Leu-Arg-Pro-NHEt (Palmitoyl-EHWSY[dL]LRP-NHEt; also: acetate salt) [Example 5],numbers of secondary or Graafian follicles in the ovary,ovary of female rats,decreased
dexamethasone palmitate,anti-inflammatory effect relative to dexamethasone alone,[3],5.6 fold
